According to ChEMBL document CHEMBL5724914, “Linking interpersonal differences in gut microbiota composition and drug biotransformation activity” (2024):

test: (§1) The drug is tested on WLS-220 corresponding to human gut metagenome with ENA study accession number: PRJEB37062 and ENA sample accession number: ERS12561769 for biotransformation under anaerobic condition. The drug concentrations were measured over 9 timepoints collected between 0 and 24 hours of incubation by liquid-chromatography-coupled mass spectrometry (LC–MS); conditions: 2 µM
Note: call rule not given here.

Bacterial Biotransformation	Structure (SMILES)
Compound metabolized	O=C(O)CCc1nc(-c2ccccc2)c(-c2ccccc2)o1 [OXAPROZIN]
Compound metabolized	CCOC(=O)[C@H](CCc1ccccc1)N[C@@H](C)C(=O)N1[C@H](C(=O)O)C[C@@H]2CCC[C@@H]21
Compound NOT metabolized	O=C1NCC2(CCN(CCc3ccccc3)CC2)O1 [FENSPIRIDE]

Structure (SMILES)	Bacterial Biotransformation
CN1CCN(C2=Nc3cc(Cl)ccc3Nc3ccccc32)CC1 [CLOZAPINE]	Compound metabolized

conditions: human gut metagenome, 24 h, 2 µM

Bacterial Biotransformation	Structure (SMILES)
Compound metabolized	O=C(O)CCc1nc(-c2ccccc2)c(-c2ccccc2)o1 [OXAPROZIN]
Compound metabolized	CCOC(=O)[C@H](CCc1ccccc1)N[C@@H](C)C(=O)N1[C@H](C(=O)O)C[C@@H]2CCC[C@@H]21
Compound NOT metabolized	O=C1NCC2(CCN(CCc3ccccc3)CC2)O1 [FENSPIRIDE]

Structure (SMILES)	Bacterial Biotransformation
CN1CCN(C2=Nc3cc(Cl)ccc3Nc3ccccc32)CC1 [CLOZAPINE]	Compound metabolized

test: as §1, with “WLS-350” for “WLS-220”, “ERS12561789” for “ERS12561769”; conditions: 2 µM

Bacterial Biotransformation	Structure (SMILES)
Compound metabolized	O=C(O)CCc1nc(-c2ccccc2)c(-c2ccccc2)o1 [OXAPROZIN]
Compound metabolized	CCOC(=O)[C@H](CCc1ccccc1)N[C@@H](C)C(=O)N1[C@H](C(=O)O)C[C@@H]2CCC[C@@H]21
Compound NOT metabolized	O=C1NCC2(CCN(CCc3ccccc3)CC2)O1 [FENSPIRIDE]

Structure (SMILES)	Bacterial Biotransformation
CN1CCN(C2=Nc3cc(Cl)ccc3Nc3ccccc32)CC1 [CLOZAPINE]	Compound metabolized

test: as §1, with “Z-004” for “WLS-220”, “to” for “to human gut”, “ERS12561804” for “ERS12561769”; conditions: 2 µM

Bacterial Biotransformation	Structure (SMILES)
Compound NOT metabolized	O=C(O)CCc1nc(-c2ccccc2)c(-c2ccccc2)o1 [OXAPROZIN]
Compound metabolized	CCOC(=O)[C@H](CCc1ccccc1)N[C@@H](C)C(=O)N1[C@H](C(=O)O)C[C@@H]2CCC[C@@H]21
Compound NOT metabolized	O=C1NCC2(CCN(CCc3ccccc3)CC2)O1 [FENSPIRIDE]

Structure (SMILES)	Bacterial Biotransformation
CN1CCN(C2=Nc3cc(Cl)ccc3Nc3ccccc32)CC1 [CLOZAPINE]	Compound NOT metabolized

conditions: human gut metagenome, 24 h, 2 µM; remark: another data set of the same source

Bacterial Biotransformation	Structure (SMILES)
Compound metabolized	O=C(O)CCc1nc(-c2ccccc2)c(-c2ccccc2)o1 [OXAPROZIN]
Compound metabolized	CCOC(=O)[C@H](CCc1ccccc1)N[C@@H](C)C(=O)N1[C@H](C(=O)O)C[C@@H]2CCC[C@@H]21
Compound metabolized	O=C1NCC2(CCN(CCc3ccccc3)CC2)O1 [FENSPIRIDE]

Structure (SMILES)	Bacterial Biotransformation
CN1CCN(C2=Nc3cc(Cl)ccc3Nc3ccccc32)CC1 [CLOZAPINE]	Compound metabolized

conditions: human gut metagenome, 24 h, 2 µM; remark: another data set of the same source

Bacterial Biotransformation	Structure (SMILES)
Compound metabolized	O=C(O)CCc1nc(-c2ccccc2)c(-c2ccccc2)o1 [OXAPROZIN]
Compound metabolized	CCOC(=O)[C@H](CCc1ccccc1)N[C@@H](C)C(=O)N1[C@H](C(=O)O)C[C@@H]2CCC[C@@H]21
Compound NOT metabolized	O=C1NCC2(CCN(CCc3ccccc3)CC2)O1 [FENSPIRIDE]

Structure (SMILES)	Bacterial Biotransformation
CN1CCN(C2=Nc3cc(Cl)ccc3Nc3ccccc32)CC1 [CLOZAPINE]	Compound metabolized

test: as §1, with “Z-029” for “WLS-220”, “rat” for “human”, “ERS12561828” for “ERS12561769”; conditions: 2 µM

Bacterial Biotransformation	Structure (SMILES)
Compound NOT metabolized	O=C(O)CCc1nc(-c2ccccc2)c(-c2ccccc2)o1 [OXAPROZIN]
Compound NOT metabolized	CCOC(=O)[C@H](CCc1ccccc1)N[C@@H](C)C(=O)N1[C@H](C(=O)O)C[C@@H]2CCC[C@@H]21
Compound NOT metabolized	O=C1NCC2(CCN(CCc3ccccc3)CC2)O1 [FENSPIRIDE]

Structure (SMILES)	Bacterial Biotransformation
CN1CCN(C2=Nc3cc(Cl)ccc3Nc3ccccc32)CC1 [CLOZAPINE]	Compound NOT metabolized

conditions: human gut metagenome, 24 h, 2 µM; remark: another data set of the same source

Bacterial Biotransformation	Structure (SMILES)
Compound metabolized	O=C(O)CCc1nc(-c2ccccc2)c(-c2ccccc2)o1 [OXAPROZIN]
Compound metabolized	CCOC(=O)[C@H](CCc1ccccc1)N[C@@H](C)C(=O)N1[C@H](C(=O)O)C[C@@H]2CCC[C@@H]21
Compound NOT metabolized	O=C1NCC2(CCN(CCc3ccccc3)CC2)O1 [FENSPIRIDE]

Structure (SMILES)	Bacterial Biotransformation
CN1CCN(C2=Nc3cc(Cl)ccc3Nc3ccccc32)CC1 [CLOZAPINE]	Compound NOT metabolized

test: as §1, with “Z-005” for “WLS-220”, “to” for “to human gut”, “ERS12561805” for “ERS12561769”; conditions: 2 µM

Bacterial Biotransformation	Structure (SMILES)
Compound metabolized	O=C(O)CCc1nc(-c2ccccc2)c(-c2ccccc2)o1 [OXAPROZIN]
Compound metabolized	CCOC(=O)[C@H](CCc1ccccc1)N[C@@H](C)C(=O)N1[C@H](C(=O)O)C[C@@H]2CCC[C@@H]21
Compound NOT metabolized	O=C1NCC2(CCN(CCc3ccccc3)CC2)O1 [FENSPIRIDE]

Structure (SMILES)	Bacterial Biotransformation
CN1CCN(C2=Nc3cc(Cl)ccc3Nc3ccccc32)CC1 [CLOZAPINE]	Compound NOT metabolized

test: as §1, with “Z-017” for “WLS-220”, “mouse” for “human”, “ERS12561816” for “ERS12561769”; conditions: 2 µM

Bacterial Biotransformation	Structure (SMILES)
Compound NOT metabolized	O=C(O)CCc1nc(-c2ccccc2)c(-c2ccccc2)o1 [OXAPROZIN]
Compound NOT metabolized	CCOC(=O)[C@H](CCc1ccccc1)N[C@@H](C)C(=O)N1[C@H](C(=O)O)C[C@@H]2CCC[C@@H]21
Compound NOT metabolized	O=C1NCC2(CCN(CCc3ccccc3)CC2)O1 [FENSPIRIDE]

Structure (SMILES)	Bacterial Biotransformation
CN1CCN(C2=Nc3cc(Cl)ccc3Nc3ccccc32)CC1 [CLOZAPINE]	Compound NOT metabolized

conditions: human gut metagenome, 24 h, 2 µM; remark: another data set of the same source

Bacterial Biotransformation	Structure (SMILES)
Compound metabolized	O=C(O)CCc1nc(-c2ccccc2)c(-c2ccccc2)o1 [OXAPROZIN]
Compound metabolized	CCOC(=O)[C@H](CCc1ccccc1)N[C@@H](C)C(=O)N1[C@H](C(=O)O)C[C@@H]2CCC[C@@H]21
Compound NOT metabolized	O=C1NCC2(CCN(CCc3ccccc3)CC2)O1 [FENSPIRIDE]

Structure (SMILES)	Bacterial Biotransformation
CN1CCN(C2=Nc3cc(Cl)ccc3Nc3ccccc32)CC1 [CLOZAPINE]	Compound NOT metabolized

conditions: human gut metagenome, 24 h, 2 µM; remark: another data set of the same source

Bacterial Biotransformation	Structure (SMILES)
Compound metabolized	O=C(O)CCc1nc(-c2ccccc2)c(-c2ccccc2)o1 [OXAPROZIN]
Compound metabolized	CCOC(=O)[C@H](CCc1ccccc1)N[C@@H](C)C(=O)N1[C@H](C(=O)O)C[C@@H]2CCC[C@@H]21
Compound NOT metabolized	O=C1NCC2(CCN(CCc3ccccc3)CC2)O1 [FENSPIRIDE]

Structure (SMILES)	Bacterial Biotransformation
CN1CCN(C2=Nc3cc(Cl)ccc3Nc3ccccc32)CC1 [CLOZAPINE]	Compound NOT metabolized

conditions: human gut metagenome, 24 h, 2 µM; remark: another data set of the same source

Bacterial Biotransformation	Structure (SMILES)
Compound metabolized	O=C(O)CCc1nc(-c2ccccc2)c(-c2ccccc2)o1 [OXAPROZIN]
Compound NOT metabolized	CCOC(=O)[C@H](CCc1ccccc1)N[C@@H](C)C(=O)N1[C@H](C(=O)O)C[C@@H]2CCC[C@@H]21
Compound NOT metabolized	O=C1NCC2(CCN(CCc3ccccc3)CC2)O1 [FENSPIRIDE]

Structure (SMILES)	Bacterial Biotransformation
CN1CCN(C2=Nc3cc(Cl)ccc3Nc3ccccc32)CC1 [CLOZAPINE]	Compound NOT metabolized

test: as §1, with “WLS-069” for “WLS-220”, “ERS12561748” for “ERS12561769”; conditions: 2 µM

Bacterial Biotransformation	Structure (SMILES)
Compound metabolized	O=C(O)CCc1nc(-c2ccccc2)c(-c2ccccc2)o1 [OXAPROZIN]
Compound metabolized	CCOC(=O)[C@H](CCc1ccccc1)N[C@@H](C)C(=O)N1[C@H](C(=O)O)C[C@@H]2CCC[C@@H]21
Compound NOT metabolized	O=C1NCC2(CCN(CCc3ccccc3)CC2)O1 [FENSPIRIDE]

Structure (SMILES)	Bacterial Biotransformation
CN1CCN(C2=Nc3cc(Cl)ccc3Nc3ccccc32)CC1 [CLOZAPINE]	Compound NOT metabolized

conditions: human gut metagenome, 24 h, 2 µM; remark: another data set of the same source

Bacterial Biotransformation	Structure (SMILES)
Compound metabolized	O=C(O)CCc1nc(-c2ccccc2)c(-c2ccccc2)o1 [OXAPROZIN]
Compound metabolized	CCOC(=O)[C@H](CCc1ccccc1)N[C@@H](C)C(=O)N1[C@H](C(=O)O)C[C@@H]2CCC[C@@H]21
Compound NOT metabolized	O=C1NCC2(CCN(CCc3ccccc3)CC2)O1 [FENSPIRIDE]

Structure (SMILES)	Bacterial Biotransformation
CN1CCN(C2=Nc3cc(Cl)ccc3Nc3ccccc32)CC1 [CLOZAPINE]	Compound NOT metabolized

test: as §1, with “Z-006” for “WLS-220”, “mouse” for “human”, “ERS12561806” for “ERS12561769”; conditions: 2 µM

Bacterial Biotransformation	Structure (SMILES)
Compound NOT metabolized	O=C(O)CCc1nc(-c2ccccc2)c(-c2ccccc2)o1 [OXAPROZIN]
Compound NOT metabolized	CCOC(=O)[C@H](CCc1ccccc1)N[C@@H](C)C(=O)N1[C@H](C(=O)O)C[C@@H]2CCC[C@@H]21
Compound NOT metabolized	O=C1NCC2(CCN(CCc3ccccc3)CC2)O1 [FENSPIRIDE]

Structure (SMILES)	Bacterial Biotransformation
CN1CCN(C2=Nc3cc(Cl)ccc3Nc3ccccc32)CC1 [CLOZAPINE]	Compound NOT metabolized

conditions: human gut metagenome, 24 h, 2 µM; remark: another data set of the same source

Bacterial Biotransformation	Structure (SMILES)
Compound metabolized	O=C(O)CCc1nc(-c2ccccc2)c(-c2ccccc2)o1 [OXAPROZIN]
Compound metabolized	CCOC(=O)[C@H](CCc1ccccc1)N[C@@H](C)C(=O)N1[C@H](C(=O)O)C[C@@H]2CCC[C@@H]21
Compound NOT metabolized	O=C1NCC2(CCN(CCc3ccccc3)CC2)O1 [FENSPIRIDE]

Structure (SMILES)	Bacterial Biotransformation
CN1CCN(C2=Nc3cc(Cl)ccc3Nc3ccccc32)CC1 [CLOZAPINE]	Compound metabolized

test: as §1, with “WLS-052” for “WLS-220”, “ERS12561747” for “ERS12561769”; conditions: 2 µM

Bacterial Biotransformation	Structure (SMILES)
Compound metabolized	O=C(O)CCc1nc(-c2ccccc2)c(-c2ccccc2)o1 [OXAPROZIN]
Compound metabolized	CCOC(=O)[C@H](CCc1ccccc1)N[C@@H](C)C(=O)N1[C@H](C(=O)O)C[C@@H]2CCC[C@@H]21
Compound NOT metabolized	O=C1NCC2(CCN(CCc3ccccc3)CC2)O1 [FENSPIRIDE]

Structure (SMILES)	Bacterial Biotransformation
CN1CCN(C2=Nc3cc(Cl)ccc3Nc3ccccc32)CC1 [CLOZAPINE]	Compound NOT metabolized

conditions: human gut metagenome, 24 h, 2 µM; remark: another data set of the same source

Bacterial Biotransformation	Structure (SMILES)
Compound metabolized	O=C(O)CCc1nc(-c2ccccc2)c(-c2ccccc2)o1 [OXAPROZIN]
Compound metabolized	CCOC(=O)[C@H](CCc1ccccc1)N[C@@H](C)C(=O)N1[C@H](C(=O)O)C[C@@H]2CCC[C@@H]21
Compound metabolized	O=C1NCC2(CCN(CCc3ccccc3)CC2)O1 [FENSPIRIDE]

Structure (SMILES)	Bacterial Biotransformation
CN1CCN(C2=Nc3cc(Cl)ccc3Nc3ccccc32)CC1 [CLOZAPINE]	Compound metabolized

test: as §1, with “Z-022” for “WLS-220”, “mouse” for “human”, “ERS12561821” for “ERS12561769”; conditions: 2 µM

Bacterial Biotransformation	Structure (SMILES)
Compound metabolized	O=C(O)CCc1nc(-c2ccccc2)c(-c2ccccc2)o1 [OXAPROZIN]
Compound metabolized	CCOC(=O)[C@H](CCc1ccccc1)N[C@@H](C)C(=O)N1[C@H](C(=O)O)C[C@@H]2CCC[C@@H]21
Compound metabolized	O=C1NCC2(CCN(CCc3ccccc3)CC2)O1 [FENSPIRIDE]

Structure (SMILES)	Bacterial Biotransformation
CN1CCN(C2=Nc3cc(Cl)ccc3Nc3ccccc32)CC1 [CLOZAPINE]	Compound NOT metabolized
